Test results from patent US20040048318A1, “Method for screening anti-proliferative compounds and method for inhibiting tumor growth” (priority 2003, published 2004).

Experiments:
[1] = test system: methionine 14-3-3γ; assay: IEF-immunoblotting for induction of methionine 14-3-3γ in H1299 cells; assay type: cell-based, human
Procedure: (§1) H1299, a non-small cell lung carcinoma which is obtained from the American Type Culture Collection (Rockville, Md.), is cultivated in PRMI1640 supplemented with 10% fetal calf serum and glutamine, penicillin, streptomycin, and gentamycin. The H1299 cells are grown to about 70% confluenc and then cultivated with or without 25 μM bengamide. Samples of the cells are taken at 8, 16, 24 and 48 hours. At the end of the culture periods, the sample cells are washed with PBS (phosphate buffered solution, available from Sigma Chemical) and collected by scraping and centrifugation. The cell pellet is dissolved in 4 volumes of Rabilloud buffer. Rabilloud buffer contained 4% non-ionic detergent CHAPS, 7 M urea, 2 M thiourea, 10 mg/ml dithiothreitol and 1% pharmalytes (pH 3-10), which buffer is disclosed in Electrophoresis, 1997 Mar-Apr., 18 (3-4): 307-16, Rabilloud et al., Improvement of the Solubilization of Proteins in Two-dimensional electrophoresis with immobilized pH Gradients. The cell concentration was between 2 and 2.5 E7/ml.
(§2) Immobilized pH-gradient (IPG) gels (Immobiline®, Amersham Pharmacia Biotech) are re-swollen for at least 4 hours in Rabilloud buffer without pharmalytes. Samples (1 μl of cell extract) are directly loaded at a distance of about 2 cm from the anode to the surface of the gel using a comb. Focusing is carried out at 200 V for 2 hours and at 1000 or 3500 V until a 25000 Vh is reached. The temperature is maintained at 15° C. After focusing, the gel is fixed in 12% TCA-3.5% sulfosalicylic acid for 1 hour and washed in water for 1 hour. The washed gel is blotted by placing the gel on a flat surface and covering with a sheet of PVDF-membrane which was sequentially soaked in Isopropanol, water and a guanidinium chloride solution of […] Tris-HCl at pH 7.5, 4 M guanidinium chloride, 1 mg/ml DTT. The membrane is covered with 4 layers of filter paper sheets which was soaked with the guanidinium chloride solution. A polyethylene film is placed over the filter sheets and a 3 kg weight having a 14 cm by 14 cm flat surface is placed over the polyethylene film to ensure a good contact between the layers. The gel layers are undisturbed to allow transfer for overnight, then the membrane is washed with water and treated with a solution of 0.5% formaldehyde in PBS for 30 minutes. The membrane is incubated with 2% glycine in PBS at pH 7 for 30 minutes.
The membrane is then blocked with 0.05% Tween 20-1% skimmed dry milk powder in PBS for 1 hour. Commercially available antibodies against 14-3-3 (Santa Cruz) are applied for 4 hours in blocking buffer. Chemiluminescence detection (ECL-kit, Amersham Pharmacia Biotech) is carried out using the secondary antibodies supplied with the kit.

[2] = test system: methionine 14-3-3γ; assay: IEF-immunoblotting for induction of methionine 14-3-3γ in MDA-MB435 (mammary carcinoma) cells; assay type: cell-based, human; conditions: 200 nM LAF389, within 18 hours
Procedure: [The procedure below names another cell line; the source says it served here with some conditions changed.] as §1
(§3) Immobilized pH-gradient (IPG) gels (Immobiline®, Amersham Pharmacia Biotech) are re-swollen for at least 4 hours in Rabilloud buffer without pharmalytes. Samples (1 μl of cell extract) are directly loaded at a distance of about 2 cm from the anode to the surface of the gel using a comb. […]

[3] = test system: methionine 14-3-3γ; assay: IEF-immunoblotting for induction of methionine 14-3-3γ in A549 (lung carcinoma) cells; assay type: cell-based, human; conditions: 200 nM LAF389, within 18 hours
Procedure: [The procedure below names another cell line; the source says it served here with some conditions changed.] as §1, §3

[4] = test system: methionine 14-3-3γ; assay: IEF-immunoblotting for induction of methionine 14-3-3γ in U20S (osteosarcoma) cells; assay type: cell-based, human; conditions: for expression of the altered 14-3-3γ isoform: U20S cells treated with the compound (summary statement, no concentration given)
Procedure: [The procedure below names another cell line; the source says it served here with some conditions changed.] as §1
as §2, with “A polyethylene film is placed over the filter sheets and a 3 kg weight having a 14 cm by 14 cm flat surface is placed over the polyethylene film to ensure a good contact between the layers. The gel layers are undisturbed to allow transfer for overnight, then the membrane is washed with water and treated with a solution of 0.5% formaldehyde in PBS for 30 minutes. The membrane is incubated with 2% glycine in PBS at pH 7 for 30 minutes.” left out

[5] = test system: methionine 14-3-3γ; assay: IEF-immunoblotting of white blood cell fraction from treated rats for methionine 14-3-3γ; assay type: in vivo; conditions: 3 mg/kg three times for a day, rested 7 days, dosed three times again, blood collected after one day rest
Procedure: One group of laboratory rats is treated with the bengamide analogue LAF389 of Example 2 three times for a day at the 3 mg/kg dosage, then rested for 7 days. Th rats are again dosed three times the following day with the dosage. They are rested for one day and blood samples are collected. Peripheral blood is collected by a percoll gradient centrifugation protocol. The white blood cell fraction including platelets is recovered and the pellet is lysed in IEF sample buffer. The bio-samples are analyzed with the IEF-immunoblotting analysis. Control bio-samples are obtained from a group of rats that are not treated with the bengamide analogue.

## CO[C@@H]1[C@H](OC(=O)NC(=O)CCl)CC[C@]2(CO2)[C@H]1[C@@]1(C)O[C@@H]1CC=C(C)C [AGM-1470]
[1]; AGM-1470 in place of bengamide
  induction of methionine 14-3-3γ (IEF-immunoblotting): induce methionine 14-3-3γ

## COC(C(=O)NC1CCC(OC(=O)C2CCCCC2)CNC1=O)C(O)C(O)C(O)/C=C/C(C)(C)C (stereo not shown) [LAF389]
[1]; 200 nM LAF389, samples at 8, 16, 24 and 48 hours
  induction/accumulation of methionine 14-3-3γ (IEF-immunoblotting): induce and accumulate the protein which is reactive to the 14-3-3γ antibody
[1]; 18 hours, LAF389 200 nM, 5-fluorouracil 20 μg/ml, epothilone 500 nM, doxorubicin 1 μg/ml, stauosporin 1 μM
  induction of methionine 14-3-3γ (IEF-immunoblotting): induced methionine 14-3-3γ
[2]
  induction of methionine 14-3-3γ (IEF-immunoblotting): induce methionine 14-3-3γ within 18 hours
[3]
  induction of methionine 14-3-3γ (IEF-immunoblotting): induce methionine 14-3-3γ within 18 hours
[4]; U20S cells, 200 nM LAF389, within 18 hours
  induction of methionine 14-3-3γ (IEF-immunoblotting): induce methionine 14-3-3γ within 18 hours
[5]
  induction and accumulation of methionine 14-3-3γ in white blood cell fraction: induce and accumulate methionine 14-3-3γ

## CO[C@@H]1[C@H](OC(=O)/C=C/C=C/C=C/C=C/C(=O)O)CC[C@]2(CO2)[C@H]1[C@@]1(C)O[C@@H]1CC=C(C)C [fumagillin]
[4]
  expression of the altered 14-3-3γ isoform: express the altered 14-3-3γ isoform

## bengamide
[1]; 25 μM bengamide, samples at 8, 16, 24 and 48 hours
  induction/accumulation of methionine 14-3-3γ (IEF-immunoblotting): gradually accumulate over the 48 hour culture period the protein that reacts with the 14-3-3γ specific antibody
[4]
  expression of the altered 14-3-3γ isoform: express the altered 14-3-3γ isoform
